Measured values as given in ChEMBL document CHEMBL4699440, “Comprehensive review on the anti-bacterial activity of 1,2,3-triazole hybrids” (Eur J Med Chem, 2019).
Converted amounts (≈) assume the structure as drawn.

Key:
Streptococcus pyogenes = test: Antibacterial activity against Streptococcus pyogenes ATCC 35552 incubated for 24 hrs by tube dilution method; assay type: functional
Proteus vulgaris [1] = test: Antibacterial activity against Proteus vulgaris ATCC 29905; assay type: functional
Pseudomonas aeruginosa [2] = test: Antibacterial activity against Pseudomonas aeruginosa ATCC 27853; assay type: functional
Klebsiella pneumoniae [3] = test: Antibacterial activity against Klebsiella pneumoniae 7; assay type: functional
Pseudomonas aeruginosa [4] = test: Antibacterial activity against Pseudomonas aeruginosa 12 incubated for 20 hrs by agar dilution method; assay type: functional
Enterococcus faecium [5] = test: Antibacterial activity against Enterococcus faecium ATCC 700221; assay type: functional
Escherichia coli [6] = test: Antibacterial activity against Escherichia coli ATCC 25922 incubated for 24 hrs by tube dilution method; assay type: functional
[7] = tested on: Staphylococcus epidermidis; test: Antibacterial activity against methicillin-resistant Staphylococcus epidermidis 13-3; assay type: functional
Staphylococcus aureus [8] = test: Antibacterial activity against methicillin-resistant Staphylococcus aureus ATCC 33591; assay type: functional
Bacillus cereus [9] = test: Antibacterial activity against Bacillus cereus MTCC 430 incubated for 24 hrs by macrodilution tube method; assay type: functional
Bacillus subtilis [10] = test: Antibacterial activity against Bacillus subtilis MTCC 441 incubated for 24 hrs by microdilution method; assay type: functional
Klebsiella pneumoniae [11] = test: Antibacterial activity against Klebsiella pneumoniae ATCC 15380 incubated for 24 hrs by tube dilution method; assay type: functional
Staphylococcus aureus [12] = test: Antibacterial activity against Staphylococcus aureus 209P JC1 incubated for 20 hrs by agar dilution method; assay type: functional
Klebsiella pneumoniae [13] = test: Antibacterial activity against Klebsiella pneumonia RCMB 010058 by broth dilution method; assay type: functional
Staphylococcus aureus [14] = test: Antibacterial activity against methicillin-sensitive Staphylococcus aureus ATCC 29213; assay type: functional
Pseudomonas aeruginosa [15] = test: Antibacterial activity against Pseudomonas aeruginosa MTCC 741 incubated for 24 hrs by microdilution method; assay type: functional
[16] = tested on: Staphylococcus epidermidis; test: Antibacterial activity against Staphylococcus epidermidis incubated for 24 hrs by microdilution method; assay type: functional
[17] = tested on: Staphylococcus epidermidis; test: Antibacterial activity against methicillin-sensitive Staphylococcus epidermidis ATCC 12228; assay type: functional
Providencia rettgeri = test: Antibacterial activity against Providencia rettgeri ATCC 31052; assay type: functional
Bacillus subtilis [18] = test: Antibacterial activity against Bacillus subtilis MTCC 441 by serial dilution method; assay type: functional
Bacillus subtilis [19] = test: Antibacterial activity against Bacillus subtilis RCMB 010067 by broth dilution method; assay type: functional
Streptococcus pneumoniae = test: Antibacterial activity against Streptococcus pneumoniae RCMB 010010 by broth dilution method; assay type: functional
Pseudomonas aeruginosa [20] = test: Antibacterial activity against Pseudomonas aeruginosa RCMB 010043 by broth dilution method; assay type: functional
Escherichia coli [21] = test: Antibacterial activity against Escherichia coli MTCC 1652 incubated for […] by two-fold serial dilution method; assay type: functional; conditions: time 24 hrs
Morganella morganii = test: Antibacterial activity against Morganella morganii ATCC 25830; assay type: functional
Staphylococcus aureus [22] = test: Antibacterial activity against Staphylococcus aureus ATCC 25923 incubated for 24 hrs by microdilution method; assay type: functional
Klebsiella pneumoniae [23] = test: Antibacterial activity against Klebsiella pneumoniae ATCC 700603; assay type: functional
Bacillus cereus [24] = test: Antibacterial activity against Bacillus cereus ATCC 10876 incubated for 24 hrs by microdilution method; assay type: functional
Pseudomonas aeruginosa [25] = test: Antibacterial activity against Pseudomonas aeruginosa ATCC 12454 incubated for 24 hrs by tube dilution method; assay type: functional
Proteus mirabilis [26] = test: Antibacterial activity against Proteus mirabilis ATCC 35659 incubated for 24 hrs by microdilution method; assay type: functional
Enterococcus faecalis = test: Antibacterial activity against Enterococcus faecalis ATCC 29212 incubated for 24 hrs by microdilution method; assay type: functional
Escherichia coli [27] = test: Antibacterial activity against Escherichia coli NIHJ JC2 incubated for 20 hrs by agar dilution method; assay type: functional
Klebsiella pneumoniae [28] = test: Antibacterial activity against Klebsiella pneumoniae MTCC 618 incubated for 24 hrs by microdilution method; assay type: functional
Pseudomonas aeruginosa [29] = test: Antibacterial activity against Pseudomonas aeruginosa ATCC 27853 incubated for 24 hrs by microdilution method; assay type: functional
Staphylococcus aureus [30] = test: Antibacterial activity against Staphylococcus aureus by agar dilution method; assay type: functional
[31] = tested on: Stenotrophomonas maltophilia; test: Antibacterial activity against Stenotrophomonas maltophilia ATCC 13636; assay type: functional
Enterococcus faecium [32] = test: Antibacterial activity against Enterococcus faecium 13-7; assay type: functional
Staphylococcus aureus [33] = test: Antibacterial activity against Staphylococcus aureus ATCC 25923 incubated for 24 hrs by tube dilution method; assay type: functional
[34] = tested on: Acinetobacter calcoaceticus; test: Antibacterial activity against Acinetobacter calcoaceticus ATCC 19606; assay type: functional
Citrobacter freundii = test: Antibacterial activity against Citrobacter freundii ATCC 43864; assay type: functional
Klebsiella aerogenes = test: Antibacterial activity against Enterobacter aerogenes ATCC 13048; assay type: functional
Bacillus cereus [35] = test: Antibacterial activity against Bacillus cereus by agar dilution method; assay type: functional
Serratia marcescens = test: Antibacterial activity against Serratia marcescens ATCC 21074; assay type: functional
Escherichia coli [36] = test: Antibacterial activity against Escherichia coli RCMB 010052 by broth dilution method; assay type: functional
Pseudomonas aeruginosa [37] = test: Antibacterial activity against Pseudomonas aeruginosa MTCC 424 by serial dilution method; assay type: functional
[38] = tested on: Staphylococcus epidermidis; test: Antibacterial activity against Staphylococcus epidermidis MTCC 6880 by serial dilution method; assay type: functional
Proteus mirabilis [39] = test: Antibacterial activity against Proteus mirabilis 13-1; assay type: functional
Pseudomonas aeruginosa [40] = test: Antibacterial activity against Pseudomonas aeruginosa MTCC 424 incubated for 24 hrs by two-fold serial dilution method; assay type: functional
Staphylococcus aureus [41] = test: Antibacterial activity against Staphylococcus aureus RCMB 010025 by broth dilution method; assay type: functional
Escherichia coli [42] = test: Antibacterial activity against Escherichia coli MTCC […] by serial dilution method; assay type: functional
Staphylococcus aureus [43] = test: Antibacterial activity against Staphylococcus aureus MTCC 96 incubated for 24 hrs by microdilution method; assay type: functional
Bacillus subtilis [44] = test: Antibacterial activity against Bacillus subtilis MTCC 441 incubated for 24 hrs by two-fold serial dilution method; assay type: functional
Escherichia coli [45] = test: Antibacterial activity against Escherichia coli ATCC 25922 assessed as inhibition zone; assay type: functional
Staphylococcus aureus [46] = test: Antibacterial activity against Staphylococcus aureus ATCC 25923 assessed as inhibition zone; assay type: functional
Proteus vulgaris [47] = test: Antibacterial activity against Proteus vulgaris ATCC 4636 assessed as inhibition zone; assay type: functional
Pseudomonas aeruginosa [48] = test: Antibacterial activity against Pseudomonas aeruginosa ATCC 27853 assessed as inhibition zone; assay type: functional
Bacillus spizizenii [49] = test: Antibacterial activity against Bacillus subtilis ATCC 6633 assessed as inhibition zone; assay type: functional
Salmonella typhimurium = test: Antibacterial activity against Salmonella typhimurium ATCC 14028 incubated for 24 hrs by broth dilution method; assay type: functional, Salmonella enterica subsp. enterica serovar Typhimurium; conditions: Salmonella enterica
Bacillus cereus [50] = test: Antibacterial activity against Bacillus cereus RCMB-010067 assessed as diameter of inhibition zone at 5 mg/ml by diffusion technique; assay type: functional; conditions: read-out: IZ
Bacillus cereus [51] = test: Antibacterial activity against Bacillus cereus ATCC 6630 incubated for 24 hrs; assay type: functional
Escherichia coli [52] = test: Antibacterial activity against Escherichia coli ATCC 25922 incubated for 24 hrs by broth dilution method; assay type: functional
Staphylococcus aureus [53] = test: Antibacterial activity against Staphylococcus aureus ATCC 29737 incubated for 24 hrs; assay type: functional
Staphylococcus aureus [54] = test: Antibacterial activity against Staphylococcus aureus RCMB-010010 assessed as diameter of inhibition zone at 5 mg/ml by diffusion technique; assay type: functional; conditions: read-out: IZ
Micrococcus luteus [55] = test: Antibacterial activity against Micrococcus Luteus ATCC 398 incubated for 24 hrs; assay type: functional
Proteus vulgaris [56] = test: Antibacterial activity against Proteus vulgaris ATCC 3851 incubated for 24 hrs by broth dilution method; assay type: functional
Bacillus spizizenii [57] = test: Antibacterial activity against Bacillus subtilis ATCC 6633 incubated for 24 hrs by broth dilution method; assay type: functional
Pseudomonas fluorescens = test: Antibacterial activity against Pseudomonas fluorescens NCIM 2173 incubated for 24 hrs; assay type: functional
Staphylococcus aureus [58] = test: Antibacterial activity against Staphylococcus aureus ATCC 6538p incubated for 24 hrs by broth dilution method; assay type: functional
Micrococcus luteus [59] = test: Antibacterial activity against Micrococcus luteus IFC 12708 incubated for 24 hrs by broth dilution method; assay type: functional
[60] = tested on: Sphingomonas paucimobilis; test: Antibacterial activity against Flavobacterium devorans ATCC 10829 incubated for 24 hrs; assay type: functional

SMILES: O=C(O)c1cn(C2CC2)c2cc(N3CCNCC3)c(F)cc2c1=O [CIPROFLOXACIN]
- MIC (Streptococcus pyogenes): 5.5 µg/mL (≈ 16.6 µM)
- MIC (Proteus vulgaris [1]): ≤ 0.03 µg/mL
- MIC (Pseudomonas aeruginosa [2]): 0.03 µg/mL (≈ 0.0905 µM)
- MIC (Klebsiella pneumoniae [3]): ≤ 0.03 µg/mL
- MIC (Pseudomonas aeruginosa [4]): 0.0063 µg/mL (≈ 0.019 µM)
- MIC (Enterococcus faecium [5]): > 128 µg/mL
- MIC (Escherichia coli [6]): 5.5 µg/mL (≈ 16.6 µM)
- MIC [7]: 0.03 µg/mL (≈ 0.0905 µM)
- MIC (Staphylococcus aureus [8]): 0.03 µg/mL (≈ 0.0905 µM)
- MIC (Bacillus cereus [9]): 6.25 µg/mL (≈ 18.9 µM)
- MIC (Bacillus subtilis [10]): 0.39 µg/mL (≈ 1.18 µM)
- MIC (Klebsiella pneumoniae [11]): 5.5 µg/mL (≈ 16.6 µM)
- MIC (Staphylococcus aureus [12]): 0.0063 µg/mL (≈ 0.019 µM)
- MIC (Klebsiella pneumoniae [13]): ≥ 5 µg/mL
- MIC (Staphylococcus aureus [14]): 0.03 µg/mL (≈ 0.0905 µM)
- MIC (Pseudomonas aeruginosa [15]): 0.39 µg/mL (≈ 1.18 µM)
- MIC [16]: 0.39 µg/mL (≈ 1.18 µM)
- MIC [17]: 0.03 µg/mL (≈ 0.0905 µM)
- MIC (Providencia rettgeri): ≤ 0.03 µg/mL
- MIC (Bacillus subtilis [18]): 4.7 µM (≈ 1.56 µg/mL)
- MIC (Bacillus subtilis [19]): ≥ 5 µg/mL
- MIC (Streptococcus pneumoniae): ≥ 5 µg/mL
- MIC (Pseudomonas aeruginosa [20]): ≥ 5 µg/mL
- MIC (Escherichia coli [21]): 37.7 µM (≈ 12.5 µg/mL)
- MIC (Morganella morganii): ≤ 0.03 µg/mL
- MIC (Staphylococcus aureus [22]): 1 µg/mL (≈ 3.02 µM)
- MIC (Klebsiella pneumoniae [23]): 0.03 µg/mL (≈ 0.0905 µM)
- MIC (Bacillus cereus [24]): 1 µg/mL (≈ 3.02 µM)
- MIC (Pseudomonas aeruginosa [25]): 5.5 µg/mL (≈ 16.6 µM)
- MIC (Proteus mirabilis [26]): 1 µg/mL (≈ 3.02 µM)
- MIC (Enterococcus faecalis): 1 µg/mL (≈ 3.02 µM)
- MIC (Escherichia coli [27]): 0.0063 µg/mL (≈ 0.019 µM)
- MIC (Klebsiella pneumoniae [28]): 0.39 µg/mL (≈ 1.18 µM)
- MIC (Pseudomonas aeruginosa [29]): 1 µg/mL (≈ 3.02 µM)
- MIC (Staphylococcus aureus [30]): 2 µg/mL (≈ 6.04 µM)
- MIC [31]: 0.03 µg/mL (≈ 0.0905 µM)
- MIC (Enterococcus faecium [32]): > 128 µg/mL
- MIC (Staphylococcus aureus [33]): 5.5 µg/mL (≈ 16.6 µM)
- MIC [34]: 0.03 µg/mL (≈ 0.0905 µM)
- MIC (Citrobacter freundii): ≤ 0.03 µg/mL
- MIC (Klebsiella aerogenes): ≤ 0.03 µg/mL
- MIC (Bacillus cereus [35]): 2 µg/mL (≈ 6.04 µM)
- MIC (Serratia marcescens): 0.03 µg/mL (≈ 0.0905 µM)
- MIC (Escherichia coli [36]): ≥ 5 µg/mL
- MIC (Pseudomonas aeruginosa [37]): 4.7 µM (≈ 1.56 µg/mL)
- MIC [38]: 4.7 µM (≈ 1.56 µg/mL)
- MIC (Proteus mirabilis [39]): ≤ 0.03 µg/mL
- MIC (Pseudomonas aeruginosa [40]): 0.0377 µg/mL (≈ 0.114 µM)
- MIC (Staphylococcus aureus [41]): ≥ 5 µg/mL
- MIC (Escherichia coli [42]): 4.7 µM (≈ 1.56 µg/mL)
- MIC (Staphylococcus aureus [43]): 0.39 µg/mL (≈ 1.18 µM)
- MIC (Bacillus subtilis [44]): 0.0377 µg/mL (≈ 0.114 µM)

SMILES: CC(O)C(=O)O.CCOc1ccc2nc3cc(N)ccc3c(N)c2c1
- inhibition zone (IZ) (Escherichia coli [45]): 12 mm
- inhibition zone (IZ) (Staphylococcus aureus [46]): 12 mm
- inhibition zone (IZ) (Proteus vulgaris [47]): 12 mm
- inhibition zone (IZ) (Pseudomonas aeruginosa [48]): 12 mm
- inhibition zone (IZ) (Bacillus spizizenii [49]): 12 mm

SMILES: CC1(C)S[C@@H]2[C@H](NC(=O)[C@H](N)c3ccccc3)C(=O)N2[C@H]1C(=O)O [AMPICILLIN]
- MIC (Salmonella typhimurium): 1.56 µg/mL (≈ 4.46 µM)
- zone of inhibition at 5000 µg/mL (Bacillus cereus [50]): 23.8 mm
- MIC (Bacillus cereus [51]): 2 µg/mL (≈ 5.72 µM)
- MIC (Escherichia coli [52]): 1.56 µg/mL (≈ 4.46 µM)
- MIC (Staphylococcus aureus [53]): 2 µg/mL (≈ 5.72 µM)
- zone of inhibition at 5000 µg/mL (Staphylococcus aureus [54]): 32.4 mm
- MIC (Micrococcus luteus [55]): 2 µg/mL (≈ 5.72 µM)
- MIC (Proteus vulgaris [56]): 1.56 µg/mL (≈ 4.46 µM)
- MIC (Bacillus spizizenii [57]): 1.56 µg/mL (≈ 4.46 µM)
- MIC (Pseudomonas fluorescens): 2 µg/mL (≈ 5.72 µM)
- MIC (Staphylococcus aureus [58]): 1.56 µg/mL (≈ 4.46 µM)
- MIC (Micrococcus luteus [59]): 1.56 µg/mL (≈ 4.46 µM)
- MIC [60]: 2 µg/mL (≈ 5.72 µM)
